Laboratory results: publication PMC4368788, “Depsides: Lichen Metabolites Active against Hepatitis C Virus” (PLoS ONE, 2015)
“Also recorded” adds a separate entry of the source. Read-outs that look alike come from different tables or passages of the source.

Columns and labels:
HCVcc [1] = experiment: Anti-HCV activity: HCVcc expressing Renilla luciferase in Huh-7.5.1 cells, luciferase readout; format: cell-based, hepatitis C virus; settings: for IC50: Hepatitis C virus, Huh-7.5.1 cells infected with HCVcc, 1 h preincubation then 48 h with virus, mean ± SEM, three experiments; for SI (selectivity index): ratio of CC50 to IC50; for Anti-HCV activity: HCVcc in Huh-7.5.1 cells, up to 100 μM
Experimental: (§1) Huh-7.5.1 cells were maintained in Dulbecco's modified Eagle's medium (DMEM) containing 4.5 g/l D-glucose, 4 mM L-glutamine (Life Technologies), supplemented with 100 units/mL penicillin (Life Technologies), 100 μg/mL streptomycin (Life Technologies), non-essential amino acids (Sigma-Aldrich), 1 mM Hepes (Life Technologies) and 10% heat-inactivated fetal calf serum (FCS, Hyclone). […] In cell viability and HCV in vitro propagation experiments, the final concentration of DMSO was systematically adjusted to 0.1%. We checked that this amount of DMSO had no effect on the biological cycle of HCVcc in vitro (data not shown).
(§2) HCVcc was generated from the FL-J6/JFH-5’C19Rluc2AUbi construct, a monocistronic, full-length HCV genome that expresses Renilla luciferase. It was produced and titrated as described elsewhere, except for the readout for luciferase activity measurement. Cell viability was evaluated with the Cell Proliferation Reagent WST-1 (Roche), according to the manufacturer’s instructions. Luciferase assays were performed according to the manufacturer’s instructions (Promega) and measurements were performed on a Centro XS3 LB960 luminometer (Berthold Technologies).
(§3) Cell viability and viral replication data from at least three independent experiments were analyzed. The IC50 values of the compounds were determined from dose-response curves generated with seven to 12 concentrations of each compound. Curves were fitted to the data points by nonlinear regression analysis and IC50 values were interpolated from the resulting curves with GraphPad Prism 5.00 software.
We evaluated the anti-HCV activity of the 10 atranorin-related compounds, using a virus grown in cell culture (HCVcc) with a modification of its genome resulting in expression of the Renilla luciferase reporter gene. […] These two compounds are known to interfere with the entry and replication steps of viral cycle, respectively. The maximum dose of each tested compound was 100 μM, because most of these molecules became insoluble in aqueous solution at higher concentrations. The first experimental procedure used involved the preincubation of human hepatic Huh-7.5.1 cells for 1 h with various doses of the molecules. The cells were then cultured in the presence of both the molecules tested and the virus, for an additional 48 h. At the end of the incubation period, we assessed cell viability and viral replication. This protocol made it possible to test the effects of molecules on both virus entry and replication. […] Remarkably, compound 6 tended to give a slightly, but reproducibly higher viability signal when used at high doses, with a peak at about 50 μM. […] At concentrations greater than 50 μM, cytotoxic effects emerged, as shown by the decrease of the viability signal.

Huh-7.5.1 cells [2] = experiment: Cell viability in the inoculation/replication (I, R, I/R) procedure; format: cell-based, human
Experimental: (§4) An experimental procedure was designed to determine the inhibitor class (entry or replication) to which compounds 1, 5 and 6 belonged. HCVcc were added to the cell culture during a limited time window (around 17 h). The cells were then washed to eliminate viruses from the inoculum and viral replication was allowed to take place for an additional 30 h. The selected compounds were present in the culture medium during inoculation (I), replication (R), or both these phases (inoculation and replication, I/R). […] In terms of antiviral activity, we expected to obtain two inhibition profiles for the luminescence signal, depending on the step of the viral lifecycle targeted by the drug (Fig. 4B). […] The inhibitory effect on the establishment of replication (R conditions) observed at high doses was probably due principally to the inhibition of new infection cycles initiated by virions produced by cells infected with the inoculum. A different profile was obtained for telaprevir. […] Its presence in the medium from inoculation onwards prevented the priming of the infection process at the viral polyprotein maturation step, which normally takes place after the translation of the HCV genome issued from the infecting virus. This maturation step is also repeated during the replication phase, for amplification of the viral genome and virion assembly. It is therefore not surprising that inhibition was strongest when telaprevir was present throughout the viral lifecycle (I/R), as there was probably an additive effect. […] The chemical group in this position seems to influence not only the potency of the molecule, but also its mechanism of action. Further studies are required to identify the processes involved because, for example, we cannot rule out a role in the inhibition of viral entry for compounds 5 and 6, even though they appeared to act as replication inhibitors in this experiment. It could be hypothesized that the replacement of a methyl or hydroxymethyl by an aldehyde group in position C-3 would lead to a loss of replication inhibition, but maintenance of the ability to inhibit viral entry.
(§5) Fig 4 Effects of compounds 1, 5 and 6 on cell viability and HCV propagation in vitro. One day after seeding at 50,000 cells/cm^2, Huh-7.5.1 cells were infected with HCVcc at a MOI ~ 0.03 for 17 h (inoculation phase: I). The inoculum was removed and cell cultures were washed before the addition of new medium and incubation for an additional 30 h (replication phase: R). […] (A) Cell viability and (B) viral replication were assessed at the end of the incubation period. Results are expressed as percentages (mean ± SEM; n = 3) of the mean values obtained for the respective control cultures, in which cells were incubated with vehicle (0.1% DMSO) alone.

in vitro = format: cell-based, human; settings: human, mean ± SEM; for CC50 at 48 h: half-maximal cytotoxicity concentration, Huh-7.5.1 cells, maximum dose tested 100 μM; for viability at 48 h, 50 µM / viability at 48 h, 100 µM: percentage of vehicle (0.1% DMSO) control; for viability at 48 h, 10 µM: 10 μM (controls)
Experimental: as §1, with “0.1%.” for “0.1%. We checked that this amount of DMSO had no effect on the biological cycle of HCVcc in vitro (data not shown).”
as §2, §3
(§6) We evaluated the anti-HCV activity of the 10 atranorin-related compounds, using a virus grown in cell culture (HCVcc) with a modification of its genome resulting in expression of the Renilla luciferase reporter gene. […] These two compounds are known to interfere with the entry and replication steps of viral cycle, respectively. […] The first experimental procedure used involved the preincubation of human hepatic Huh-7.5.1 cells for 1 h with various doses of the molecules. The cells were then cultured in the presence of both the molecules tested and the virus, for an additional 48 h. At the end of the incubation period, we assessed cell viability and viral replication. This protocol made it possible to test the effects of molecules on both virus entry and replication.

Huh-7.5.1 cells [3] = experiment: in vitro; format: cell-based, human; settings: for Effect on cell viability signal: high doses, up to 100 μM; for Effect on cell viability signal / CC50: 48 h; for CC50: half-maximal cytotoxicity concentration, Huh-7.5.1 cells, mean ± SEM, maximum dose tested 100 μM
Experimental: as §1, with “0.1%.” for “0.1%. We checked that this amount of DMSO had no effect on the biological cycle of HCVcc in vitro (data not shown).”
as §2, §3, §6

HCVcc [4] = experiment: Targeted stage of HCV life cycle: compounds present during inoculation (I), replication (R) or both (I/R), luciferase readout; format: cell-based, hepatitis C virus; settings: for Inhibition profile / step of HCV lifecycle targeted: compounds present during I (17 h), R (30 h) or I/R
Experimental: as §4
Fig 4 Effects of compounds 1, 5 and 6 on cell viability and HCV propagation in vitro. One day after seeding at 50,000 cells/cm^2, Huh-7.5.1 cells were infected with HCVcc at a MOI ~ 0.03 for 17 h (inoculation phase: I). The inoculum was removed and cell cultures were washed before the addition of new medium and incubation for an additional 30 h (replication phase: R). Compounds were present at various concentrations either during both phases (I/R: black circles and solid lines) or during only one phase (I: black squares and dotted lines; R: black triangles and dashed lines). (A) Cell viability and (B) viral replication were assessed at the end of the incubation period. Results are expressed as percentages (mean ± SEM; n = 3) of the mean values obtained for the respective control cultures, in which cells were incubated with vehicle (0.1% DMSO) alone.

[5] = Stability of the molecule in solution; format: physicochemical; settings: even if dissolved immediately before use
[6] = Cell viability in the inoculation/replication (I, R, I/R) procedure; format: cell-based, human; settings: human; I, R, I/R incubation conditions
Experimental: as §4, §5

[7] = percentage of vehicle control, n = 3

SMILES	IC50 (HCVcc [1])	CC50 at 48 h (in vitro)	viability at 48 h, 50 µM (in vitro; n = 3)	viability at 48 h, 100 µM (in vitro; n = 3)	Effect on cell viability signal (Huh-7.5.1 cells [3])	Inhibition profile / step of HCV lifecycle targeted (HCVcc [4])	also measured
COC(=O)c1c(C)cc(OC(=O)c2c(C)cc(O)c(C=O)c2O)c(C)c1O [Compound 1, atranorin]	22.3 ± 8 µM	> 100 µM	95.9 ± 4.5%	91.8 ± 5.9%	minimal loss of signal	inhibited only viral entry; also recorded: effects similar to those of erlotinib	Effect on cell viability (Huh-7.5.1 cells [2]; regardless of incubation conditions (I, R, I/R)): no effect on cell viability; Inhibitory effect when present only during inoculation (HCVcc [4]; I condition only, up to 100 μM): no inhibitory effect
COC(=O)c1c(C)cc(OC(=O)c2c(C)cc(O)c(/C=C/C(C)=O)c2O)c(C)c1O [Compound 2, (E)-[3-hydroxy-4-(methoxycarbonyl)-2,5-dimethylphenyl]-2,4-dihydroxy-6-methyl-3-(3-oxobut-1-en-yl) benzoate]	64.5 ± 26.5 µM	> 100 µM	110 ± 5.9%	107 ± 5.7%	–	–	melting point: 234 to 236 °C (dec.); Stability in solution [5]: instability of the molecule in solution
COC(=O)c1c(C)cc(OC(=O)c2c(C)cc(O)cc2O)c(C)c1O [Compound 3, methyl-3’-methyllecanorate]	25.4 ± 1.7 µM	82 µM	52.7 ± 0.6%	63.1 ± 2.9%	–	–	SI (selectivity index) (HCVcc [1]): 3.2; CC50 (Huh-7.5.1 cells [3]): 81.9 ± 13.6 µM
COC(=O)c1c(C)cc(OC(=O)c2c(C)cc(O)c(C(=O)O)c2O)c(C)c1O [Compound 4, cladonioidesin]	> 100 µM	> 100 µM	104 ± 2.5%	90.4 ± 3.4%	minimal loss of signal	–	Anti-HCV activity (HCVcc [1]): inactive
COC(=O)c1c(C)cc(OC(=O)c2c(C)cc(O)c(CO)c2O)c(C)c1O [Compound 5, Methyl-8-hydroxy-4-O-demethylbarbatate]	11.8 ± 1.1 µM	106 µM	88.4 ± 7.3%	55.8 ± 5.9%	–	interfered with viral replication; also recorded: profiles typical of replication inhibitors	SI (selectivity index) (HCVcc [1]): 8.9; CC50 [6]: ~100 µM; CC50 (Huh-7.5.1 cells [3]): 106 ± 7.3 µM
COC(=O)c1c(C)cc(OC(=O)c2c(C)cc(O)c(C)c2O)c(C)c1O [Compound 6, Methyl-4-O-demethylbarbatate]	13.3 ± 1.6 µM	> 100 µM	145 ± 3.2%	81.6 ± 20.6%	–	interfered with viral replication; also recorded: profiles typical of replication inhibitors	Cytotoxicity at 100 μM (Huh-7.5.1 cells [2]; 100 μM, except in R conditions): induced some cytotoxicity; Concentration above which cytotoxic effects emerged (Huh-7.5.1 cells [3]; decrease of the viability signal): greater than 50 μM; Concentration of the peak of the higher viability signal (Huh-7.5.1 cells [3]; slightly higher viability signal at high doses, modest stimulation of cell proliferation): about 50 μM
COC(=O)c1c(C)cc(O)c(C)c1O [Compound 7, methyl-2,4-dihydroxy-3,6-dimethylbenzoate]	50.6 ± 5 µM	> 100 µM	101 ± 5.6%	97.3 ± 6.2%	–	–	–
COC(=O)c1c(C)cc(O)cc1O [Compound 8, methyl orsellinate]	≥ 100 µM	> 100 µM	106 ± 2.9%	93.4 ± 4.2%	minimal loss of signal	–	Anti-HCV activity (HCVcc [1]): inactive
Cc1cc(O)c(C=O)c(O)c1 [Compound 9, atranol]	40.3 ± 0.6 µM	> 100 µM	91.1 ± 3.5%	78.7 ± 2.3%	minimal loss of signal	–	–
COC(=O)c1c(C)cc(O)c(C=O)c1O [Compound 10, methyl haematommate]	55.5 ± 7.9 µM	> 100 µM	88.1 ± 5.5%	72.2 ± 2%	minimal loss of signal	–	–
C#Cc1cccc(Nc2ncnc3cc(OCCOC)c(OCCOC)cc23)c1 [Erlotinib, erlotinib, reference compound]	0.64 ± 0.18 µM	–	–	–	–	most efficient if present at least during the initial interaction between cells and viruses	Effect on cell viability (Huh-7.5.1 cells [2]): small anti-proliferative effect; viability at 48 h, 10 µM (in vitro; [7]): 86.5 ± 5.1%
CCC[C@H](NC(=O)[C@@H]1[C@H]2CCC[C@H]2CN1C(=O)[C@@H](NC(=O)[C@@H](NC(=O)c1cnccn1)C1CCCCC1)C(C)(C)C)C(=O)C(=O)NC1CC1 [Telaprevir, telaprevir, reference compound]	0.18 ± 0.02 µM	–	–	–	–	inhibitory action regardless of the experimental conditions (I or R)	viability at 48 h, 5 µM (in vitro; 5 μM (controls), percentage of vehicle control, n = 3): 101.9 ± 0.9%; viability at 48 h, 10 µM (in vitro; [7]): 94.1 ± 4%
